Like-named read-outs stand apart in the source and are kept apart here.
How the values were obtained:
Assay type in all cases: biochemical
meprin β = biological target: T1, meprin β (Homo sapiens, UniProt Q16820); test: Meprin β assay, fluorogenic substrate (Mca)-EDEDED-(K-ε-Dnp), 384 and 1536 well plate formats
T1 sequence (Q16820 62-594 limits assumed): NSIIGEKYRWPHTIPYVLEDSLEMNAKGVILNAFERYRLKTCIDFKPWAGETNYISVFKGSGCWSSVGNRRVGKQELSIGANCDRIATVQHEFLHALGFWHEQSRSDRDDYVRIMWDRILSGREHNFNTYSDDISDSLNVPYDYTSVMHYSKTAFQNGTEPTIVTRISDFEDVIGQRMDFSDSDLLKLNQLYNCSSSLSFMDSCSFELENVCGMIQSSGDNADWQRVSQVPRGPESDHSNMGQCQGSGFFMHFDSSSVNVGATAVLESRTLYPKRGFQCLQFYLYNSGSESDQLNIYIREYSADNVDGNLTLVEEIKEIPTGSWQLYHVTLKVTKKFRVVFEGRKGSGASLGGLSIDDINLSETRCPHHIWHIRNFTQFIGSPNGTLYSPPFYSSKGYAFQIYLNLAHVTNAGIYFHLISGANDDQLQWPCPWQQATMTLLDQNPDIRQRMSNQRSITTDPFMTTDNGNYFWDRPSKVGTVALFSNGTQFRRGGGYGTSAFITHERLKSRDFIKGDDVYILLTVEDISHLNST
Excerpt: The meprin α and meprin β assays, which utilize the substrates (Mca)-YVADAPK-(K-ε-Dnp) and (Mca)-EDEDED-(K-ε-Dnp), respectively, have been described previously. To enable an ultra-high-throughput screening (uHTS) campaign, we proceeded to miniaturize both assays to 1536 well plate format (wpf). First, we recapitulated the assays in 1536 well plate using reagents at the same concentrations as in 384 well plate format assays by scaling the volume down by the factor of 2.5.
Both assays followed the same general protocol. A 5 µL measure of 2 × enzyme solution (2.6 and 0.1 nM for meprin α and meprin β, respectively) in assay buffer (50 mM Hepes, 0.01% Brij-35, pH 7.5) was added to solid bottom black 384 low volume plates (Nunc, cat# 264705). Next, 75 nL of test compounds or pharmacological control (actinonin or NFF449) were added to corresponding wells using a 384-pin tool device (V&P Scientific, San Diego, CA, USA). After 30 min incubation at RT, the reactions were started by addition of 5 µL of 2 × solutions of substrates (20 µM, mepin α substrate Mca-YVADAPK-K(Dnp) or meprin β substrate Mca-EDEDED-K(Dnp)). Reactions were incubated at RT for 1 h, after which the fluorescence was measured using the Synergy H4 multimode microplate reader (Biotek Instruments) (λexcitation = 324 nm, λemission = 390 nm).
Both assays followed the same general protocol. A 2 µL portion of 2 × enzyme solution (1.3 and 0.0125 nM for meprin α and meprin β, respectively) in assay buffer (50 mM Hepes, 0.01% Brij-35, pH 7.5) was added to solid bottom black 1536 low volume plates (Corning cat# 7261). Next, 30 nL of test compounds or pharmacological control (actinonin or NFF449) was added to corresponding wells using a 1536 pin tool device (V&P Scientific, San Diego). After 30 min incubation at RT, the reactions were started by addition of 2 µL of 2x solutions of substrates (20 µM, meprin α substrate Mca-YVADAPK-K(Dnp) or meprin β substrate Mca-EDEDED-K(Dnp)). Reactions were incubated at RT for 1 h, after which the fluorescence was measured using the Viewlux multimode microplate reader (Perkin Elmer) (λexcitation = 324 nm, λemission = 390 nm).
The miniaturized 1536-well plate format meprin α and meprin β assays were used to screen a collection of approximately 650,000 compounds (The Scripps Research library, La Jolla, CA, USA) on the automated Kalypsys/GNF platform at The Scripps Research Molecular Screening Center (SRMSC, Jupiter, FL, USA: http://hts.florida.scripps.edu/). Both uHTS campaigns were run separately but in a similar manner. Briefly, the first step was the primary screen of all test compounds as singlicates against the meprin α and meprin β target at a final concentration of 7.0 μM. Next, compounds selected as primary hits were cherry-picked and retested in triplicate against the primary screen target and its antitarget (meprin α for the meprin β screening effort, and vice versa) at a same final concentration of 7.0 μM. The additional counter screen assays against related metzincins (MMP-8, MMP-14, and ADAM10) were performed in triplicate at a final concentration of 7.0 μM. The final step was the titration of selected hits as 10-point, 1:3 serial dilutions in both the target and antitarget assay, starting at a final nominal concentration of 17 μM. […] Wells treated with DMSO only were used as negative controls and 0% inhibition reference. […] All data generated during this effort were uploaded to the SRMSC’s institutional screening database (Assay Explorer, Symyx). Sample to background (S/B) ratios, as well as Z and Z’ values, were calculated on a per plate basis as described 14. Curve fitting and resulting IC50 determinations were performed as previously reported.

MMP10 = biological target: T2, MMP10 (Homo sapiens, UniProt P09238); test: MMP assay (Mca-KPLGL-Dpa-AR-NH2 substrate); details: triplicate, 10-point, 3:1 serial dilution, highest concentration 17.4 µM
T2 construct: purchased R&D Systems 910-MP
T2 sequence (P09238 99-476): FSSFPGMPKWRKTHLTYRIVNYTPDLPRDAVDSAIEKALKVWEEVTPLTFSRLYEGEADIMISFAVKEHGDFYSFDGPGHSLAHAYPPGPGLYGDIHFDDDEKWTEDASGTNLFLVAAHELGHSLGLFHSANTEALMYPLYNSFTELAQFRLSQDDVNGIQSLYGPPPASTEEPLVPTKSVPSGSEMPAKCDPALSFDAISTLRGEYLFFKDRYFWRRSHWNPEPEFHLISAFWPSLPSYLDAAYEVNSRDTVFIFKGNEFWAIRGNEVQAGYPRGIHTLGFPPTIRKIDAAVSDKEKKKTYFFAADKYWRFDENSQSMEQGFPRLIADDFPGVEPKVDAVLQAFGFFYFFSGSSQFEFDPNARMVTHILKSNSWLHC
Method: (§1) In addition to meprins, we also tested 64 hits against related metzincins (MMP-2, MMP-3, MMP-8, MMP-9, MMP-10, MMP-14, ADAM10, and ADAM17) to ascertain general nonpromiscuity against zinc-dependent proteases.
(§2) All assays followed the same general protocol. […] After 30 min incubation at RT, the reactions were started by addition of 5 µL of 2x solutions of substrate (R&D Systems cat#: ES010, Mca-KPLGL-Dpa-AR-NH2, 20 µM). Reactions were incubated at RT for 1 h, after which the fluorescence was measured using the Synergy H4 multimode microplate reader (Biotek Instruments) (λexcitation = 324 nm, λemission = 390 nm).

MMP14 = biological target: T3, MMP14 (Homo sapiens, UniProt P50281); test: MMP assay (Mca-KPLGL-Dpa-AR-NH2 substrate); details: triplicate, 10-point, 3:1 serial dilution, highest concentration 17.4 µM
T3 construct: purchased R&D Systems 918-MP
Method: as §1, §2

MMP8 = biological target: T4, MMP8 (Homo sapiens, UniProt P22894); test: MMP assay (Mca-KPLGL-Dpa-AR-NH2 substrate); details: triplicate, 10-point, 3:1 serial dilution, highest concentration 17.4 µM
T4 construct: purchased R&D Systems 908-MP
T4 sequence (P22894 101-467): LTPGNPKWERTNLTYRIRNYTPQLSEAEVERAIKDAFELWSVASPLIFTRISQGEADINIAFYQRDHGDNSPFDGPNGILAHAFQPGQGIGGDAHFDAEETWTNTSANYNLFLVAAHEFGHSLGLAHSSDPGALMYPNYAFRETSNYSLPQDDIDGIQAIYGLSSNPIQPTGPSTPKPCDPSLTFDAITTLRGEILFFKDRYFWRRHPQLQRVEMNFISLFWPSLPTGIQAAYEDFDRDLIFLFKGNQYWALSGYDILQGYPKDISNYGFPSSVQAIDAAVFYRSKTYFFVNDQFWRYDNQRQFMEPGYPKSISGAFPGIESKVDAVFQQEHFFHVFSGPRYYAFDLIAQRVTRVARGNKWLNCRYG
Method: as §1, §2

[1] = triplicate, 10-point, 3:1 serial dilution, highest concentration 17.4 µM, read-out: Meprin β IC50

Q: COc1ccc(-n2c(CSc3ncccn3)nnc2SCC(=O)NO)cc1 [Compound 19855] was tested. Which IC50 (meprin β; [1]) did it give?
A: > 17000 nM

Q: What about the IC50 (MMP10) of the same compound?
A: > 17 µM

Q: What about the IC50 (MMP14) of the same compound?
A: > 17 µM

Q: And the IC50 (MMP8)?
A: > 17 µM

Q: O=[N+]([O-])c1ccc(CN2CCC3(CCc4ccccc43)CC2)o1 [SR207820] was tested. Which IC50 (meprin β; [1]) did it give?
A: 1500 nM

Q: What about the IC50 (MMP10) of the same compound?
A: > 17 µM

Q: What about the IC50 (MMP14) of the same compound?
A: > 17 µM

Q: And the IC50 (MMP8)?
A: > 17 µM

Q: Which results are given for COc1cc(OC)cc(C(=O)CNc2nnc(SCC(=O)NO)s2)c1 [Compound 19849]?
A: IC50 (meprin β; [1]): 287 nM; IC50 (MMP10): > 17 µM; IC50 (MMP14): > 17 µM; IC50 (MMP8): > 17 µM

Q: Which results are given for O=C(CSc1nnc(NC(=O)COc2ccccc2)s1)NO [Compound 19848]?
A: IC50 (meprin β; [1]): 385 nM; IC50 (MMP10): > 17 µM; IC50 (MMP14): > 17 µM; IC50 (MMP8): > 17 µM

Q: O=C(CSc1nnc(NC(=O)c2ccccc2)s1)NO [Compound 19847] was tested. Which IC50 (meprin β; [1]) did it give?
A: 1430 nM

Q: And the IC50 (MMP10)?
A: > 17 µM

Q: What about the IC50 (MMP14) of the same compound?
A: > 17 µM

Q: What about the IC50 (MMP8) of the same compound?
A: > 17 µM

Q: Which IC50 (meprin β; [1]) does the source give for O=C(c1ccc(C(=O)O)c([N+](=O)[O-])c1)c1ccc(C(=O)O)c([N+](=O)[O-])c1 [SR355996] here?
A: 970 nM

Q: What about the IC50 (MMP10) of the same compound?
A: > 17 µM

Q: What about the IC50 (MMP14) of the same compound?
A: > 17 µM

Q: And the IC50 (MMP8)?
A: > 17 µM

Q: Which results are given for O=C(Nc1cc(C(=O)Nc2ccc(S(=O)(=O)O)cc2S(=O)(=O)O)cc(C(=O)Nc2ccc(S(=O)(=O)O)cc2S(=O)(=O)O)c1)Nc1cc(C(=O)Nc2ccc(S(=O)(=O)O)cc2S(=O)(=O)O)cc(C(=O)Nc2ccc(S(=O)(=O)O)cc2S(=O)(=O)O)c1 [NFF449]?
A: increased apparent potency (meprin β; 2.5 µM substrate condition): 3 fold; IC50 (meprin β; 1536 wpf, 0.0125 nM enzyme, substrate 2.5uM, time 30 min, read-out: NF449 IC50): 10 nM; IC50 (meprin β; 1536 wpf, 0.0125 nM enzyme, substrate 2.5uM, time 60 min, read-out: NF449 IC50): 11 nM; IC50 (meprin β; 1536 wpf, 0.0125 nM enzyme, substrate 5uM, time 30 min, read-out: NF449 IC50): 17 nM; IC50 (meprin β; 1536 wpf, 0.0125 nM enzyme, substrate 5uM, time 60 min, read-out: NF449 IC50): 20 nM; IC50 (meprin β; 1536 wpf, 0.0125 nM enzyme, substrate 5uM, time 90 min, read-out: NF449 IC50): 22 nM; IC50 (meprin β; 1536 wpf, 0.0125 nM enzyme, substrate 10uM, time 30 min, read-out: NF449 IC50): 34 nM; IC50 (meprin β; 1536 wpf, 0.0125 nM enzyme, substrate 10uM, time 60 min, read-out: NF449 IC50): 32 nM; IC50 (meprin β; 1536 wpf, 0.0125 nM enzyme, substrate 10uM, time 90 min, read-out: NF449 IC50): 34 nM; IC50 (meprin β; 1536 wpf, enzyme 0.0125nM, time 30 min, read-out: NF449 IC50): 25.2 nM; IC50 (meprin β; 1536 wpf, enzyme 0.0125nM, time 60 min, read-out: NF449 IC50): 30.4 nM; IC50 (meprin β; 1536 wpf, enzyme 0.0125nM, time 90 min, read-out: NF449 IC50): 33.9 nM; IC50 (meprin β; 1536 wpf, enzyme 0.025nM, time 30 min, read-out: NF449 IC50): 31 nM; IC50 (meprin β; 1536 wpf, enzyme 0.025nM, time 60 min, read-out: NF449 IC50): 36.2 nM; IC50 (meprin β; 1536 wpf, enzyme 0.025nM, time 90 min, read-out: NF449 IC50): 39.2 nM; IC50 (meprin β; 1536 wpf, enzyme 0.05nM, time 30 min, read-out: NF449 IC50): 29.6 nM; IC50 (meprin β; 1536 wpf, enzyme 0.05nM, time 60 min, read-out: NF449 IC50): 34.6 nM; IC50 (meprin β; 1536 wpf, enzyme 0.05nM, time 90 min, read-out: NF449 IC50): 39.4 nM; IC50 (meprin β; Meprin β 384 wpf, read-out: IC50): 53 nM; IC50 (meprin β; Meprin β 1536 wpf, read-out: IC50): 48 nM; IC50 (meprin β; control compound in primary HTS campaign, n = 11 plates, read-out: IC50): 10.4 ± 0.85 nM

Q: How did the IC50 (meprin β) turn out when O=C(COc1ccc(Cl)cc1Cl)NO [Compound 1596857] was run?
A: > 17000 nM

Q: What about the IC50 (MMP10) of the same compound?
A: > 17 µM

Q: What about the IC50 (MMP14) of the same compound?
A: > 17 µM

Q: What about the IC50 (MMP8) of the same compound?
A: > 17 µM

Q: How did the IC50 (meprin β; [1]) turn out when O=C(CCN(Cc1cccs1)S(=O)(=O)c1ccc([N+](=O)[O-])cc1)NO [Compound 162799] was run?
A: > 17000 nM

Q: What about the IC50 (MMP10) of the same compound?
A: > 17 µM

Q: What about the IC50 (MMP14) of the same compound?
A: > 17 µM

Q: What about the IC50 (MMP8) of the same compound?
A: > 17 µM

Q: CSc1nnc2c(n1)OC(c1ccc([N+](=O)[O-])o1)Nc1ccccc1-2 (stereo not shown) [SR412882] was tested. Which IC50 (meprin β; [1]) did it give?
A: 3500 nM

Q: What about the IC50 (MMP10) of the same compound?
A: 9.7 µM

Q: What about the IC50 (MMP14) of the same compound?
A: 10.5 µM

Q: What about the IC50 (MMP8) of the same compound?
A: > 17 µM

Q: O=C(CCN(Cc1ccccc1)S(=O)(=O)c1ccc(F)cc1)NO [Compound 162808] was tested. Which IC50 (meprin β; [1]) did it give?
A: > 17000 nM

Q: What about the IC50 (MMP10) of the same compound?
A: > 17 µM

Q: What about the IC50 (MMP14) of the same compound?
A: > 17 µM

Q: What about the IC50 (MMP8) of the same compound?
A: > 17 µM

From PMC8000592, “Discovery and Optimization of Selective Inhibitors of Meprin α (Part I)” (Pharmaceuticals, 2021)
